Counter-ions that a name gives are not always drawn.
Assays:
[1] = test system: E. coli ATCC 25922 (none); assay: MIC microbroth dilution; β-lactamase class none; format: cell-based; details: Escherichia coli, ATCC25922, E. coli ATCC 25922; Cefepime + 4 ug/ml Compound 2; read-out: MIC
Description: (§1) The in vitro activities of the antibiotics were determined by the microbroth dilution method as recommended by the National Committee for Clinical Laboratory Standards (NCCLS). (NCCLS. 2000. Methods for Dilution Antimicrobial Susceptibility Tests for Bacteria That Grow Aerobically; Approved Standards: M7-A5, vol. 19. National Committee for Clinical Laboratory Standards, Villanova, Pa.). Mueller-Hinton II broth (MHBII)(BBL Cockeysville, Md.), was used for the testing procedure. […]. The plates were incubated for 18-22 hours at 35° C. in ambient air.

E. coli GC 2804 (imp) = assay: MIC microbroth dilution; β-lactamase class none; format: cell-based; details: Escherichia coli, Cefepime + 4 ug/ml Compound 2
Description: as §1

E. coli GC 2844 (none) = assay: MIC microbroth dilution; β-lactamase class none; format: cell-based; details: Escherichia coli, Cefepime + 4 ug/ml Compound 2, read-out: MIC
Description: as §1

E. coli GC 2847 (TEM-1) = assay: MIC microbroth dilution; β-lactamase class A; format: cell-based; details: Escherichia coli, Cefepime + 4 ug/ml Compound 2, read-out: MIC
Description: as §1

K. pn GC 1510 (TEM-10) = assay: MIC microbroth dilution; β-lactamase class A (ESBL); format: cell-based, K. pneumoniae; details: Klebsiella pneumoniae, Cefepime + 4 ug/ml Compound 2, read-out: MIC
Description: as §1

K. pn GC 1516 (TEM-26) = assay: as above; format: cell-based, K. pneumoniae; details: Klebsiella pneumoniae, Cefepime + 4 ug/ml Compound 2, read-out: MIC
Description: as §1

K. pn GC 1830 (SHV-2) = assay: as above; format: cell-based, K. pneumoniae; details: Klebsiella pneumoniae, Cefepime + 4 ug/ml Compound 2, read-out: MIC
Description: as §1

K. pn GC 1832 (SHV-4) = assay: as above; format: cell-based, K. pneumoniae; details: Klebsiella pneumoniae, Cefepime + 4 ug/ml Compound 2, read-out: MIC
Description: as §1

[2] = test system: K. pn GC 1507 (TEM-9 + SHV-1); assay: MIC microbroth dilution; β-lactamase class A, A (ESBL); format: cell-based, K. pneumoniae; details: Klebsiella pneumoniae, Cefepime + 4 ug/ml Compound 2, read-out: MIC
Description: as §1

[3] = test system: K. pn GC 1554 (TEM-1 + TEM-26 + SHV-1); assay: as above; format: cell-based, K. pneumoniae; details: Klebsiella pneumoniae, Cefepime + 4 ug/ml Compound 2, read-out: MIC
Description: as §1

[4] = test system: K. pn GC 1963 (TEM-10 + SHV-1 + SHV-ESBL); assay: as above; format: cell-based, K. pneumoniae; details: Klebsiella pneumoniae, Cefepime + 4 ug/ml Compound 2, read-out: MIC
Description: as §1

[5] = test system: K. pn GC 2006 (TEM-10 + SHV-1); assay: as above; format: cell-based, K. pneumoniae; details: Klebsiella pneumoniae, Cefepime + 4 ug/ml Compound 2, read-out: MIC
Description: as §1

[6] = test system: K. pn GC 3057 (CAZ-R; P/T-R); assay: as above; format: cell-based, K. pneumoniae; details: Klebsiella pneumoniae, Cefepime + 4 ug/ml Compound 2, read-out: MIC
Description: as §1

[7] = test system: K. pn GC 6488 (TEM-1 + SHV-5 + SHV-7); assay: as above; format: cell-based, K. pneumoniae; details: Klebsiella pneumoniae, Cefepime + 4 ug/ml Compound 2, read-out: MIC
Description: as §1

[8] = test system: K. pn GC 6494 (TEM-1 + SHV-5); assay: as above; format: cell-based, K. pneumoniae; details: Klebsiella pneumoniae, Cefepime + 4 ug/ml Compound 2, read-out: MIC
Description: as §1

[9] = test system: K. pn GC 6651 (TEM-1 + SHV-1 + SHV-5); assay: as above; format: cell-based, K. pneumoniae; details: Klebsiella pneumoniae, Cefepime + 4 ug/ml Compound 2, read-out: MIC
Description: as §1

[10] = test system: K. pn GC 6657 (TEM-1 + SHV-27); assay: as above; format: cell-based, K. pneumoniae; details: Klebsiella pneumoniae, Cefepime + 4 ug/ml Compound 2, read-out: MIC
Description: as §1

[11] = test system: K. pneumoniae GC 7632 TEM-1 KPC-2, SHV-7, SHV-12; assay: MIC microbroth dilution; β-lactamase class A, A (Cb'ase), A (ESBL); format: cell-based; details: Klebsiella pneumoniae, Cefepime + 4 ug/ml Compound 2, read-out: MIC
Description: as §1

E. cloacae GC 1475 (P99) = assay: MIC microbroth dilution; β-lactamase class C; format: cell-based; details: Enterobacter cloacae, Cefepime + 4 ug/ml Compound 2, read-out: MIC
Description: as §1

[12] = test system: E. cloacae GC 6991 (AmpC); assay: MIC microbroth dilution; β-lactamase class C; format: cell-based; details: Enterobacter cloacae, Cefepime + 4 ug/ml Compound 2, read-out: MIC
Description: as §1

E. coli GC 2894 (AmpC) = assay: MIC microbroth dilution; β-lactamase class C; format: cell-based; details: Escherichia coli, Cefepime + 4 ug/ml Compound 2, read-out: MIC
Description: as §1

E. coli GC 6539 CMY-2 = assay: MIC microbroth dilution; β-lactamase class C; format: cell-based; details: Escherichia coli, GC6539CMY2, Cefepime + 4 ug/ml Compound 2, read-out: MIC
Description: as §1

[13] = test system: P. aeruginosa GC 1763 AmpC-inducible; assay: MIC microbroth dilution; β-lactamase class C; format: cell-based; details: Pseudomonas aeruginosa, Cefepime + 4 ug/ml Compound 2, read-out: MIC
Description: as §1

[14] = test system: S. marcescens GC 4132 (AmpC); assay: MIC microbroth dilution; β-lactamase class C; format: cell-based; details: Serratia marcescens, Cefepime + 4 ug/ml Compound 2, read-out: MIC
Description: as §1

[15] = test system: P. aeruginosa PT 8411 PTZ-R; assay: MIC microbroth dilution; format: cell-based; details: Pseudomonas aeruginosa, PT8411PTZR, Cefepime + 4 ug/ml Compound 2, read-out: MIC
Description: as §1

[16] = test system: P. aeruginosa PT 8503 PTZ-R; assay: MIC microbroth dilution; format: cell-based; details: Pseudomonas aeruginosa, PT8503PTZR, Cefepime + 4 ug/ml Compound 2, read-out: MIC
Description: as §1

[17] = test system: P. aeruginosa PT 9236 PTZ-R; assay: MIC microbroth dilution; format: cell-based; details: Pseudomonas aeruginosa, PT9236PTZR, Cefepime + 4 ug/ml Compound 2, read-out: MIC
Description: as §1

[18] = test system: P. aeruginosa PT 9587 PTZ-R; assay: MIC microbroth dilution; format: cell-based; details: Pseudomonas aeruginosa, PT9587PTZR, Cefepime + 4 ug/ml Compound 2, read-out: MIC
Description: as §1

[19] = test system: K. pn GC 3104 (MIR-1 + TEM-1); assay: MIC microbroth dilution; β-lactamase class A, C; format: cell-based, K. pneumoniae; details: Klebsiella pneumoniae, Cefepime + 4 ug/ml Compound 2, read-out: MIC
Description: as §1

[20] = test system: K. pn GC 6655 (TEM-1 + ACT-1); assay: MIC microbroth dilution; β-lactamase class A, C; format: cell-based, K. pneumoniae; details: Klebsiella pneumoniae, Cefepime + 4 ug/ml Compound 2, read-out: MIC
Description: as §1

[21] = test system: E. coli GAR 5929 TEM, OXA, Act-1, CTX (By PCR only); assay: MIC microbroth dilution; β-lactamase class A, C, D; format: cell-based; details: Escherichia coli, Cefepime + 4 ug/ml Compound 2, read-out: MIC
Description: as §1

[22] = test system: A. baumannii GC 6660 IMI-R; assay: MIC microbroth dilution; class PBP (penicillin binding protein); format: cell-based; details: Acinetobacter baumannii, GC6660IMIR, Cefepime + 4 ug/ml Compound 2, read-out: MIC
Description: as §1

[23] = test system: A. baumannii GC 6661 IMI-R; assay: as above; format: cell-based; details: Acinetobacter baumannii, GC6661IMIR, Cefepime + 4 ug/ml Compound 2, read-out: MIC
Description: as §1

[24] = test system: A. baumannii GC 6662 IMI-R; assay: as above; format: cell-based; details: Acinetobacter baumannii, GC6662IMIR, Cefepime + 4 ug/ml Compound 2, read-out: MIC
Description: as §1

SMILES: O=C(O)C1=CS[C@@H]2/C(=C\c3cn4c(n3)COCC4)C(=O)N12 [Compound 2, (5R), (6Z)-6-(5,6-Dihydro-8H-imidazo[2.1-c][1,4]oxazin-2-ylmethylene)-7-oxo-4-thia-1-azabicyclo[3.2.0]hept-2-ene-2-carboxylic Acid, Sodium Salt]
- MIC [1]: 0.06 µg/mL
- MIC (E. coli GC 2804 (imp)): < 0.015 µg/mL
- MIC (E. coli GC 2844 (none)): 0.06 µg/mL
- MIC (E. coli GC 2847 (TEM-1)): 0.06 µg/mL
- MIC (K. pn GC 1510 (TEM-10)): 0.03 µg/mL
- MIC (K. pn GC 1516 (TEM-26)): 0.25 µg/mL
- MIC (K. pn GC 1830 (SHV-2)): 0.06 µg/mL
- MIC (K. pn GC 1832 (SHV-4)): 0.06 µg/mL
- MIC [2]: 0.06 µg/mL
- MIC [3]: 0.12 µg/mL
- MIC [4]: 0.25 µg/mL
- MIC [5]: 0.25 µg/mL
- MIC [6]: 0.12 µg/mL
- MIC [7]: 0.5 µg/mL
- MIC [8]: 0.12 µg/mL
- MIC [9]: 0.12 µg/mL
- MIC [10]: 0.06 µg/mL
- MIC [11]: > 16 µg/mL
- MIC (E. cloacae GC 1475 (P99)): 0.12 µg/mL
- MIC [12]: 0.5 µg/mL
- MIC (E. coli GC 2894 (AmpC)): 0.06 µg/mL
- MIC (E. coli GC 6539 CMY-2): 0.06 µg/mL
- MIC [13]: 2 µg/mL
- MIC [14]: 0.12 µg/mL
- MIC [15]: 4 µg/mL
- MIC [16]: 2 µg/mL
- MIC [17]: 16 µg/mL
- MIC [18]: 2 µg/mL
- MIC [19]: 0.5 µg/mL
- MIC [20]: 0.12 µg/mL
- MIC [21]: 0.12 µg/mL
- MIC [22]: > 16 µg/mL
- MIC [23]: 16 µg/mL
- MIC [24]: > 16 µg/mL

Source: patent publication US20070129344A1, “Bicyclic 6-alkylidene-penem beta-lactamase inhibitors and beta-lactam antibiotic combination: a broad spectrum antibiotic” (priority 2005, published 2007)
